Article PMC11364775, “Ion occupancy of the selectivity filter controls opening of a cytoplasmic gate in the K2P channel TALK-2” (Nature Communications, 2024)
Where two headings read alike, the source gives them in different places. One block for each compound: values may come before it.

Assays:
[1] = target: T1, TALK-2 L264A mutant channels (Homo sapiens, UniProt Q96T54, L264A)
T1 sequence (Q96T54 1-332 L264A): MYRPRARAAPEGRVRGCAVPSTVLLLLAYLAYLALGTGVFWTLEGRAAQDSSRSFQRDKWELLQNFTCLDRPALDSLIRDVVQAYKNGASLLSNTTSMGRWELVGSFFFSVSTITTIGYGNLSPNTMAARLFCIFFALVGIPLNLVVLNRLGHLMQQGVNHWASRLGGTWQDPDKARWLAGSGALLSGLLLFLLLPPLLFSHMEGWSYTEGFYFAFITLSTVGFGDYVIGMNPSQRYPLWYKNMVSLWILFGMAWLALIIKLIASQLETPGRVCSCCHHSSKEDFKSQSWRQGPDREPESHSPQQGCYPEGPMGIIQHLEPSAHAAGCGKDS
Description: Oocytes were surgically removed from anesthetized adult females, treated with type II collagenase (Sigma-Aldrich/Merck, Germany) and manually defolliculated. 50 nl of a solution containing the K^+ channel specific cRNA was injected into Dumont stage V - VI oocytes and subsequently incubated at 17 °C in a solution containing (mM): 54 NaCl, 30 KCl, 2.4 NaHCO3, 0.82 MgSO4 x 7 H2O, 0.41 CaCl2, 0.33 Ca(NO3)2 x 4 H2O and 7.5 TRIS (pH 7.4 adjusted with NaOH/HCl) for 1–7 days before use. Electrophysiological recordings: Excised patch measurements in inside-out configuration under voltage-clamp conditions were performed at room temperature (22 – 24 °C). […] Currents were recorded with an EPC10 amplifier (HEKA electronics, Germany) and sampled at 10 kHz or higher and filtered with 3 kHz (-3 dB) or higher as appropriate for sampling rate.
Recorded currents were analyzed from stable membrane patches at a voltage defined in the respective figure legend or with a voltage protocol as indicated in the respective figure. The fold activation (fold change in (tail) current amplitude) of a ligand (drug or bioactive lipid) was calculated from Eq. 1:1 Fold activationFA=Iactivated/Ibasal where Iactivated represents the stable current level in the presence of a given concentration of a respective ligand and Ibasal the measured current before ligand application. […]

WT TREK-1 channels = WT TREK-1 channels (Rattus norvegicus, UniProt Q920B6); conditions: TREK-1 WT
Description: Data shown are the mean ± s.e.m and the number (n) of repeats of the representative measurements with similar results is indicated in the figure.
Oocytes were surgically removed from anesthetized adult females, treated with type II collagenase (Sigma-Aldrich/Merck, Germany) and manually defolliculated. 50 nl of a solution containing the K^+ channel specific cRNA was injected into Dumont stage V - VI oocytes and subsequently incubated at 17 °C in a solution containing (mM): 54 NaCl, 30 KCl, 2.4 NaHCO3, 0.82 MgSO4 x 7 H2O, 0.41 CaCl2, 0.33 Ca(NO3)2 x 4 H2O and 7.5 TRIS (pH 7.4 adjusted with NaOH/HCl) for 1–7 days before use. Electrophysiological recordings: Excised patch measurements in inside-out configuration under voltage-clamp conditions were performed at room temperature (22 – 24 °C). Patch pipettes were made from thick-walled borosilicate glass GB 200TF-8P (Science Products, Germany), had resistances of 0.2–0.5 MΩ (tip diameter of 10 - 25 µm) and filled with a pipette solution (in mM): 120 KCl, 10 HEPES and 3.6 CaCl2 (pH 7.0 - 8.5 adjusted with KOH/HCl) or 120 KCl, 10 AMPSO and 3.6 CaCl2 (pH 9.0 - 10.5 adjusted with KOH/HCl). Intracellular bath solutions and compounds were applied to the cytoplasmic side of excised patches for the various K^+ channels via a gravity flow multi-barrel pipette system. Intracellular solution had the following composition (in mM): 120 KCl, 10 HEPES, 2 EGTA and 1 Pyrophosphate (pH adjusted with KOH/HCl). In other intracellular bath solutions, K^+ was replaced by Rb^+ (pH 7.4 adjusted with RbOH/HCl). Currents were recorded with an EPC10 amplifier (HEKA electronics, Germany) and sampled at 10 kHz or higher and filtered with 3 kHz (-3 dB) or higher as appropriate for sampling rate.

[2] = target: T2, WT TREK-2 channels (human K2P10.1) (Homo sapiens, UniProt P57789); experiment: Tail current deactivation kinetics with pore blocker (inside-out patch); assay type: cell-based
T2 construct: expressed in transfected cells; host or cells: Xenopus laevis oocytes (cRNA injection), excised inside-out patches
T2 sequence (P57789 1-538): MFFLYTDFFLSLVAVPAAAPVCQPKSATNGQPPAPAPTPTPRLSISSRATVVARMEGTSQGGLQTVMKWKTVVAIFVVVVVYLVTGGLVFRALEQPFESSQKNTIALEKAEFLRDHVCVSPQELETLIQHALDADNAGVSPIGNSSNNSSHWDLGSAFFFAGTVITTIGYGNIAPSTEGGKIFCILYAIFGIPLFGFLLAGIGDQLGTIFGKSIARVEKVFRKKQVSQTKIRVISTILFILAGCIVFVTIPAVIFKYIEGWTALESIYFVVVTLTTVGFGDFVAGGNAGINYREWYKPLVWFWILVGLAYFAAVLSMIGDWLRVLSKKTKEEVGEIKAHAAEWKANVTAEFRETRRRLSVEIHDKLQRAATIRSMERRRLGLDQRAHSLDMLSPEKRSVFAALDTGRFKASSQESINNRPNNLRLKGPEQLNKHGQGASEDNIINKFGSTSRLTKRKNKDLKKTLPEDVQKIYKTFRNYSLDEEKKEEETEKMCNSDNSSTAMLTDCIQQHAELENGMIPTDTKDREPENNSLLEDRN

[3] = target: T1, TALK-2 L264A mutant channels; experiment: Conductance-voltage (G-V) curves from tail currents, V1/2 (intracellular Rb+); assay type: cell-based; parameters: expressed in transfected cells; host or cells: Xenopus laevis oocytes (cRNA injection), excised inside-out patches; conditions: for Normalized current: TALK-2 L264A + 1 mM TPenA
Description: The voltage-dependent activation mechanism of the SF gate in K2P channels allows to estimate the electrical work (ΔG = zFΔV1/2) required for pore opening by fitting the G–V curve to a Boltzmann equation. […] The open state represents the situation of both gates being simultaneously open but voltage can only exert force on the SF gate that functions as voltage sensor. […] We further tested whether mutations that open the lower gate (L262A and L264A) would affect the extracellular pH sensitivity. […] We further explored this concept of allosteric coupling using the mutations identified in the functional alanine screen of TM2 and TM4.
Dashed lines in e, f represent the level of WT (unstimulated) V1/2 at pHe 7.4. g Normalized currents from TEVC measurements of oocytes expressing WT (n = 11) and mutant L262A (n = 5) or L264A TALK-2 channels (n = 8), respectively. Channels were activated by increasing pHe from 5.5 to 10.5 with 0.5 pH increments. Currents were elucidated with a voltage protocol ramped from −120 mV to +45 mV within 3.5 s, analyzed at +40 mV and normalized to pH 10.5. Data shown are the mean ± s.e.m and the number (n) of independent experiments is indicated in the figure and supplementary tables 3 and 4.
Conductance-voltage (G–V) relationships were determined from tail currents recorded at a holding potential (VH) of −80 mV after 300 ms depolarizing steps as indicated in the respective figure legend. Data were analyzed with a single Boltzmann fit following Eq. 6:6 GV=Imax/1+e^V−V1/2/slope+Ibase where V1/2 represents the voltage of half-maximal activation, s is the slope factor and Imax and Ibase represent the upper and lower asymptotes. Under appropriate experimental conditions, you can use slope to calculate the valence (charge) of the ion moving across the channel. Slope equals R * T/ z * F where R is the universal gas constant, T is temperature in K, F is the Faraday constant, and z is the valence.

Chain of WT TREK-1 channels (Q920B6 whole entry): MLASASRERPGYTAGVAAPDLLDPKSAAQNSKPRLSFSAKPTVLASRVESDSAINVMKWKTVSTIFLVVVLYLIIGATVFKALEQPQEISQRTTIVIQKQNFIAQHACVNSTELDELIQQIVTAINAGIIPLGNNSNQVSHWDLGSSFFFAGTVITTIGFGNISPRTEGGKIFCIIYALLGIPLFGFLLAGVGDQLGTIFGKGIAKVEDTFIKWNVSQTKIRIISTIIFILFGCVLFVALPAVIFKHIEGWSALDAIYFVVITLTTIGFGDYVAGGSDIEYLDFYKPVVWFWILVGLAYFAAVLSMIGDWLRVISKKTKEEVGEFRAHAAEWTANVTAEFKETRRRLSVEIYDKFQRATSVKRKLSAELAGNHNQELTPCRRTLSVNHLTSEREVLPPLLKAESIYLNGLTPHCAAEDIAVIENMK

Fold activation 1 mM 2-APB ([1]; 1 mM): 2.78 fold | further current increase by 2-APB ([1]; 1.0 mM 2-APB): only a minor further current increase | Rb+-induced current (WT TREK-1 channels; 0.001 mM 2-APB): 2.62 nA | Rb+-induced current (WT TREK-1 channels; 0.01 mM 2-APB): 2.54 nA | Rb+-induced current (WT TREK-1 channels; 0.1 mM 2-APB): 1.29 nA | Rb+-induced current (WT TREK-1 channels; 0.5 mM 2-APB): -0.03 nA | Rb+-induced current (WT TREK-1 channels; 1.0 mM 2-APB): -0.44 nA | Rb+-induced current (WT TREK-1 channels; 2.0 mM 2-APB): 0.00 nA
Structure (SMILES): NCCOB(c1ccccc1)c1ccccc1 [2-APB, 2-aminoethoxydiphenyl borate]

Structure (SMILES): CCCCC[N+](CCCCC)(CCCCC)CCCCC [TPenA, Tetra-pentyl-ammonium chloride]
effect of TPenA inhibition on tail current kinetics ([2]; TREK-2): no effect | deactivation time constant τ of tail currents ([2]; intracellular Rb+ with 50 µM TPenA): 11.2 ± 1.4 ms | Normalized current ([3]; Voltage 0.000): 0.564 | Normalized current ([3]; Voltage 0.005): 0.623 | Normalized current ([3]; Voltage 0.010): 0.674 | Normalized current ([3]; Voltage 0.015): 0.740 | Normalized current ([3]; Voltage 0.020): 0.788 | Normalized current ([3]; Voltage 0.025): 0.840 | Normalized current ([3]; Voltage 0.030): 0.884 | Normalized current ([3]; Voltage 0.035): 0.911 | Normalized current ([3]; Voltage 0.040): 0.934 | Normalized current ([3]; Voltage 0.045): 0.947 | Normalized current ([3]; Voltage 0.050): 0.961 | Normalized current ([3]; Voltage 0.055): 0.969 | Normalized current ([3]; Voltage 0.060): 0.977 | Normalized current ([3]; Voltage 0.065): 0.978 | Normalized current ([3]; Voltage 0.070): 0.978 | Normalized current ([3]; Voltage 0.075): 0.974 | Normalized current ([3]; Voltage 0.080): 0.988 | Normalized current ([3]; Voltage 0.085): 0.976 | Normalized current ([3]; Voltage 0.090): 0.979 | Normalized current ([3]; Voltage 0.095): 0.980 | Normalized current ([3]; Voltage 0.100): 0.977 | Normalized current ([3]; Voltage 0.105): 0.982 | Normalized current ([3]; Voltage 0.110): 0.987 | Normalized current ([3]; Voltage 0.115): 0.981 | Normalized current ([3]; Voltage -0.005): 0.522 | Normalized current ([3]; Voltage -0.010): 0.490 | Normalized current ([3]; Voltage -0.015): 0.463 | Normalized current ([3]; Voltage -0.020): 0.444 | Normalized current ([3]; Voltage -0.025): 0.430 | Normalized current ([3]; Voltage -0.030): 0.417 | Normalized current ([3]; Voltage -0.035): 0.405 | Normalized current ([3]; Voltage -0.040): 0.395 | Normalized current ([3]; Voltage -0.045): 0.384 | Normalized current ([3]; Voltage -0.050): 0.375 | Normalized current ([3]; Voltage -0.055): 0.367 | Normalized current ([3]; Voltage -0.060): 0.359 | Normalized current ([3]; Voltage -0.065): 0.351 | Normalized current ([3]; Voltage -0.070): 0.345 | Normalized current ([3]; Voltage -0.075): 0.337 | Normalized current ([3]; Voltage -0.080): 0.333 | Normalized current ([3]; Voltage -0.085): 0.330 | Normalized current ([3]; Voltage -0.090): 0.331 | Normalized current ([3]; Voltage -0.095): 0.326 | effect of TPenA on the G-V curve ([3]; TALK-2 L264A, intracellular Rb+): no marked effect
